A word on the half-life: it is how long it takes for the measured level to halve. One may read the Kd as a measure of binding affinity in units of concentration. The low end stands for a tighter complex, the high end for a looser complex.

Positions of bridges follow the written chain, without caps; N, C: chain ends. Non-standard residues stand in square brackets, D forms with d. Residues, ends and D or L forms follow the SMILES beside them. Bip = N[C@@H](Cc1ccc(-c2ccccc2)cc1)C(=O)O; Hyp = O=C(O)[C@@H]1C[C@@H](O)CN1; Nle = CCCC[C@H](N)C(=O)O; Orn = NCCC[C@H](N)C(=O)O; Abu = CC[C@H](N)C(=O)O; Sar = CNCC(=O)O

Data set [1] can be described thus: In vitro plasma stability and predicted half-life (HPLC main peak area, Example 3). The following applies: human plasma (EDTA anticoagulant), 37°C, sampled up to 24 h, predicted half-life calculated with Winolin. It is filed as in vitro ADME. The procedure:
The modified peptides in this study were designed with non-natural amino acid substitutions at certain non-essential positions to enhance peptide stability and improve druggability. Peptides were dissolved in deionized water to 2 mg/mL, then diluted with acetonitrile to 1 mg/mL and filtered through an organic membrane. 200 µL of the filtrate was transferred to an LC vial as the peptide control. 300 µL of human plasma (comprising EDTA as anticoagulant, Nanjing Senbeijia Biotechnology Co., Ltd., Lot No. SBJ-P-HU011-100 mL) was mixed with 300 µL acetonitrile, centrifuged at 4°C and 12,000 rpm for 5 minutes. The supernatant was filtered through an organic membrane, and 200 µL of the filtrate was transferred to an LC vial as the plasma blank control. For peptide samples, 10 mg of peptide was weighed mixed with 5 mL of human plasma and vortexed thoroughly. 300 µL of peptide-containing plasma was mixed with 300 µL acetonitrile, centrifuged at 4°C and 12,000 rpm for 5 minutes, and the supernatant was filtered through an organic membrane. 200 µL of the filtrate was transferred to an LC vial as the 0 min sample. Peptide-containing plasma was incubated in a 37°C water bath, and samples at other time points were collected using the same procedure as the 0 min sample. For peptides AJ003 and AJ003-1, the sampling time points were 0 min, 5 min, 10 min, 20 min, 30 min, 1 h, 2 h, 4 h, 6 h, 10 h, 12 h, and 24 h. For modified peptides AJ003-34, AJ003-35, AJ003-36, AJ003-37, AJ003-38, AJ003-39, AJ003-40, AJ003-41, and AJ003-42, the time points were 0 min, 10 min, 30 min, 1 h, 4 h, 6 h, 10 h, 12 h, and 24 h. All peptide sample series were analyzed by HPLC, recording the changes in main peak areas over plasma incubation time. Predicted in vitro half-lives were calculated using the pharmacokinetic software Winolin. Due to the presence of tautomers, AJ003 peak areas were difficult to integrate accurately over time. AJ003-1 is an analog of AJ003 in which the threonine at position 5 is substituted with D-threonine; its sequence differs from AJ003 by only one amino acid configuration. […] The in vitro plasma half-lives of modified peptides AJ003-34, AJ003-35, AJ003-36, AJ003-37, AJ003-38, AJ003-39, AJ003-40, AJ003-41, and AJ003-42 were 61.9 h, 45.3 h, 65.3 h, 71.0 h, 26.7 h, 43.0 h, 84.0 h, 30.0 h, and 61.4 h, respectively.

The target of the next data set is α7 nAChR (Homo sapiens, UniProt P36544). Description: BLI (biolayer interferometry) affinity of peptides to α7 nAChR. Also on record: inferred from the 'similar' procedure on NTA sensors. The following applies: NTA sensor, α7 nAChR 20 µg/mL, peptide 1.372-1000 nM in PBS. It is filed as binding. The source says:
BLI is a label-free technology that converts optical interference signals occurring on the surface of BLI biosensors into real-time response signals. By monitoring the molecular binding process in real time, the system determines association rate constants (ka or kon), dissociation rate constants (kd or koff), and initial binding rates, and calculates affinity (KD) by fitting analysis. Here are the specific procedures: NTA sensors (Sartorius) were placed in a pre-wetting tray, which was then positioned in a black 96-well plate with 200 µL PBS per well. The NTA sensors were pre-wetted for at least 15 minutes. The target protein α9 nAChR was diluted in PBS to 5 µg/mL, with 200 µL added per well. Test peptides were dissolved in PBS and serially diluted threefold, with concentrations from high to low as 1000 nM, 333.3 nM, 111.1 nM, 37.04 nM, 12.35 nM, 4.115 nM, and 1.372 nM, with an additional well with PBS only as a zeroconcentration control. After equilibrating the instrument baseline, the NTA sensor was used to immobilize the target protein α9 nAChR. Once immobilization was complete, the baseline was re-equilibrated, followed by a 5-minute association and a 5-minute dissociation phase. Affinity measurements of the test peptides were conducted sequentially using the above procedure. The procedure for measuring peptide affinity to α7 nAChR was similar, except that the α7 nAChR concentration was 20 µg/mL. Tables 2 and 3 show the BLI-determined affinities of alanine-scan peptide analogs with target proteins, which identified sites on the parent peptide suitable for modification. Subsequently, single-site non-natural amino acid substituted peptides were evaluated by BLI for target protein affinity. Finally, multi-site combinatorial modified peptides were measured for affinity by BLI, leading to the selection of high-affinity peptides for further screen and drug development potential. Table 2 Test Results for Affinity of Modified Peptides to α9 nAChR
In general terms: In BLI a coated tip is dipped into the sample, and binding shifts an interference pattern.

Consider `CC(C)C[C@H](NC(=O)[C@@H](NC(=O)[C@H]1CSSC[C@H](NC(=O)[C@H](CO)NC(=O)CN)C(=O)N[C@@H](CO)C(=O)N[C@H]([C@H](C)O)C(=O)N2CCC[C@H]2C(=O)N2CCC[C@H]2C(=O)N[C@@H](CO)C(=O)N1)C(C)C)C(=O)N[C@@H](Cc1ccc(O)cc1)C(=O)N[C@@H](CO)C(=O)O` [AJ003-1, GSCS-(D-Thr)-PPS-(D-Cys)-VLYS (3,9 disulfide bond)] (H-GSCS[dT]PPS[dC]VLYS-OH; disulfide 3-9), for which, in data set [1], the half-life at 2 mg/mL is around 10.8 h.

Take `CC(C)C[C@H](NC(=O)[C@@H](NC(=O)[C@H]1CSSC[C@H](NC(=O)[C@H](CO)NC(=O)CN)C(=O)N[C@@H](CO)C(=O)N[C@H]([C@H](C)O)C(=O)N2CCC[C@H]2C(=O)N2CCC[C@H]2C(=O)N[C@@H](CO)C(=O)N1)C(C)C)C(=O)N[C@@H](Cc1ccc(O)cc1)C(=O)N[C@@H](CO)C(N)=O` [AJ003-4, GSCS-(D-Thr)-PPS-(D-Cys)-VLYS-NH2 (3,9 disulfide bond)] (H-GSCS[dT]PPS[dC]VLYS-NH2; disulfide 3-9): binding at α7 nAChR was put at a Kd of 339 nM.

`CC(C)C[C@H](NC(=O)[C@@H](NC(=O)[C@H]1CSSC[C@@H](NC(=O)[C@H](CO)NC(=O)CN)C(=O)N[C@@H](CO)C(=O)N[C@H]([C@H](C)O)C(=O)N2CCC[C@H]2C(=O)N2CCC[C@H]2C(=O)N[C@@H](CO)C(=O)N1)C(C)C)C(=O)N[C@@H](Cc1ccc(O)cc1)C(=O)N[C@@H](CO)C(=O)O` [AJ003-5, GS-(D-Cys)-S-(D-Thr)-PPS-(D-Cys)-VLYS (3,9 disulfide bond)] (H-GS[dC]S[dT]PPS[dC]VLYS-OH; disulfide 3-9) returned a dissociation constant Kd at α7 nAChR of 400 nM. The molecule `CC(C)C[C@@H](NC(=O)[C@H](NC(=O)[C@H]1CSSC[C@@H](NC(=O)[C@@H](CO)NC(=O)CN)C(=O)N[C@H](CO)C(=O)N[C@H]([C@H](C)O)C(=O)N2CCC[C@@H]2C(=O)N2CCC[C@@H]2C(=O)N[C@H](CO)C(=O)N1)C(C)C)C(=O)N[C@H](Cc1ccc(O)cc1)C(=O)N[C@H](CO)C(=O)O` [AJ003-6] (H-G[dS][dC][dS][dT][dP][dP][dS][dC][dV][dL][dY][dS]-OH; disulfide 3-9) displayed a Kd on α7 nAChR of 532 nM.

As to `CNCC(=O)N[C@@H](CO)C(=O)N[C@H]1CSSC[C@H](C(=O)N[C@H](C(=O)N[C@@H](CC(C)C)C(=O)N[C@@H](Cc2ccc(O)cc2)C(=O)N[C@@H](CO)C(=O)O)C(C)C)NC(=O)[C@H](CO)NC(=O)[C@@H]2CCCN2C(=O)[C@@H]2CCCN2C(=O)[C@@H]([C@H](C)O)NC(=O)[C@H](CO)NC1=O` [AJ003-8, Sar-SCS-(D-Thr)-PPS-(D-Cys)-VLYS (3,9 disulfide bond)] (H-[Sar]SCS[dT]PPS[dC]VLYS-OH; disulfide 3-9), on α7 nAChR, the Kd was 6420 nM.

With `CC[C@H](NC(=O)[C@@H](NC(=O)[C@H]1CSSC[C@H](NC(=O)[C@H](CO)NC(=O)CN)C(=O)N[C@@H](CO)C(=O)N[C@H]([C@H](C)O)C(=O)N2CCC[C@H]2C(=O)N2CCC[C@H]2C(=O)N[C@@H](CO)C(=O)N1)C(C)C)C(=O)N[C@@H](Cc1ccc(O)cc1)C(=O)N[C@@H](CO)C(=O)O` [AJ003-28, GSCS-(D-Thr)-PPS-(D-Cys)-V-ABu-YS (3,9 disulfide bond)] (H-GSCS[dT]PPS[dC]V[Abu]YS-OH; disulfide 3-9), the Kd at α7 nAChR worked out at 690 nM. In turn, `CCCC[C@H](NC(=O)[C@@H](NC(=O)[C@H]1CSSC[C@H](NC(=O)[C@H](CO)NC(=O)CN)C(=O)N[C@@H](CO)C(=O)N[C@H]([C@H](C)O)C(=O)N2CCC[C@H]2C(=O)N2CCC[C@H]2C(=O)N[C@@H](CO)C(=O)N1)C(C)C)C(=O)N[C@@H](Cc1ccc(O)cc1)C(=O)N[C@@H](CO)C(=O)O` [AJ003-29, GSCS-(D-Thr)-PPS-(D-Cys)-V-Nle-YS (3,9 disulfide bond)] (H-GSCS[dT]PPS[dC]V[Nle]YS-OH; disulfide 3-9) gave a Kd on α7 nAChR of 674 nM. With `CC(C)C[C@H](NC(=O)[C@@H](NC(=O)[C@H]1CSSC[C@H](NC(=O)[C@H](CO)NC(=O)CN)C(=O)N[C@@H](CO)C(=O)N[C@H]([C@H](C)O)C(=O)N2CCC[C@H]2C(=O)N2CCC[C@H]2C(=O)N[C@@H](CO)C(=O)N1)C(C)C)C(=O)N[C@@H](Cc1ccc(-c2ccccc2)cc1)C(=O)N[C@@H](CO)C(=O)O` [AJ003-32, GSCS-(D-Thr)-PPS-(D-Cys)-VL-Bip-S (3,9 disulfide bond)] (H-GSCS[dT]PPS[dC]VL[Bip]S-OH; disulfide 3-9), the equilibrium dissociation constant (Kd) on α7 nAChR was 375 nM.

At α7 nAChR, `CC(C)C[C@H](NC(=O)[C@@H](NC(=O)[C@H]1CSSC[C@H](NC(=O)[C@H](CO)NC(=O)CN)C(=O)N[C@@H](CO)C(=O)N[C@H]([C@H](C)O)C(=O)N2CCC[C@H]2C(=O)N2CCC[C@H]2C(=O)N[C@@H](CO)C(=O)N1)C(C)C)C(=O)N[C@@H](Cc1ccc(O)cc1)C(=O)N[C@@H](CCCN)C(N)=O` [AJ003-33, GSCS-(D-Thr)-PPS-(D-Cys)-VLY-Orn-NH2 (3,9 disulfide bond)] (H-GSCS[dT]PPS[dC]VLY[Orn]-NH2; disulfide 3-9) registered a Kd of 400 nM. As for `CCCC[C@H](NC(=O)[C@@H](NC(=O)[C@H]1CSSC[C@H](NC(=O)[C@H](CO)NC(=O)CN)C(=O)N[C@@H](CO)C(=O)N[C@H]([C@H](C)O)C(=O)N2C[C@H](O)C[C@H]2C(=O)N2C[C@H](O)C[C@H]2C(=O)N[C@@H](C)C(=O)N1)C(C)C)C(=O)N[C@@H](Cc1ccc(-c2ccccc2)cc1)C(=O)N[C@@H](CCCN)C(N)=O` [AJ003-35, GSCS-(D-Thr)-Hyp-Hyp-A-(D-Cys)-V-Nle-Bip-Orn-NH2 (3,9 disulfide bond)] (H-GSCS[dT][Hyp][Hyp]A[dC]V[Nle][Bip][Orn]-NH2; disulfide 3-9), the half-life at 2 mg/mL in data set [1] was 45.3 h. Binding at α7 nAChR was put at a Kd of 142 nM.

Regarding `CCCC[C@H](NC(=O)[C@@H](NC(=O)[C@H]1CSSC[C@H](NC(=O)[C@H](CO)NC(=O)CN)C(=O)N[C@@H](CO)C(=O)N[C@H]([C@H](C)O)C(=O)N2C[C@H](O)C[C@H]2C(=O)N2C[C@H](O)C[C@H]2C(=O)N[C@@H](CO)C(=O)N1)C(C)C)C(=O)N[C@@H](Cc1ccccc1)C(=O)N[C@@H](CCCN)C(N)=O` [AJ003-37, GSCS-(D-Thr)-Hyp-Hyp-S-(D-Cys)-V-Nle-F-Orn-NH2 (3,9 disulfide bond)] (H-GSCS[dT][Hyp][Hyp]S[dC]V[Nle]F[Orn]-NH2; disulfide 3-9), the half-life at 2 mg/mL in data set [1] is 71 h. The molecule further came in with a dissociation constant (Kd) at α7 nAChR of 68.7 nM. Taken in the same sequence, the figures for `CCCC[C@H](NC(=O)[C@@H](NC(=O)[C@H]1CSSC[C@H](NC(=O)[C@H](CO)NC(=O)CN)C(=O)N[C@@H](CO)C(=O)N[C@H]([C@H](C)O)C(=O)N2C[C@H](O)C[C@H]2C(=O)N2C[C@H](O)C[C@H]2C(=O)N[C@@H](C)C(=O)N1)C(C)C)C(=O)N[C@@H](Cc1ccccc1)C(=O)N[C@@H](CCCN)C(N)=O` [AJ003-38, GSCS-(D-Thr)-Hyp-Hyp-A-(D-Cys)-V-Nle-F-Orn-NH2 (3,9 disulfide bond)] (H-GSCS[dT][Hyp][Hyp]A[dC]V[Nle]F[Orn]-NH2; disulfide 3-9) were 26.7 h and 187 nM.

The values are drawn from EP4725956A1, “MODIFIED POLYPEPTIDE AND USE THEREOF IN FIELD OF ANALGESIA” (Nanjing Anji Biotechnology Co., Ltd., priority 2023, dated 2024).
